Structures are written as SMILES.

In this test the target is T1, IC-GPCR2 (Homo sapiens, UniProt Q8TDV5, S309L).
T1 construct: expressed in transfected cells
T1 sequence (Q8TDV5 1-335 S309L): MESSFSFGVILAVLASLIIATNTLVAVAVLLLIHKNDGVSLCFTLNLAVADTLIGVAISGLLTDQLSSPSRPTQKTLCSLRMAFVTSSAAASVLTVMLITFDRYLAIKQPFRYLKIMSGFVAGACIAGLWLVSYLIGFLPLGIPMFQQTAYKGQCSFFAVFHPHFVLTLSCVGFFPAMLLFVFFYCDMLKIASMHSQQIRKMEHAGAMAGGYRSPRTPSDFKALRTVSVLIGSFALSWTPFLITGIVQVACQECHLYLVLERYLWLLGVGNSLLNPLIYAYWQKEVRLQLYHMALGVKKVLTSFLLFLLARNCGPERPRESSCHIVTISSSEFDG
Description: Stimulation of cAMP in CHO cells stably expressing IC-GPCR2 (HTRF cAMP assay). The note with it: 0.5 h, 30 minutes, IC-GPCR2 stably expressing CHO cells, read-out: Activity at 10 uM (% change in FRET signal from DMSO control). It counts as cell-based. In short, it runs like this: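 CHO cells stably expressing IC-GPCR2, plated at 17500 cells/well, treated next day for 30 min in Ham's F12 with compounds at 6–8 concentrations from 0.00003 to 10 μM; parental CHO cells also screened. Intracellular cAMP read by HTRF competitive immunoassay (665/620 nm ratio). Activity given as % FRET change from DMSO control.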
A general note: TR-FRET usually uses a lanthanide donor and a delayed reading to cut background.
With `CC(C)(C)OC(=O)N1CCC(c2nc(COc3ccc(C(=O)O)cc3)cs2)CC1` [Example 131, 4-[4-(4-Carboxy-phenoxymethyl)-thiazol-2-yl]-piperidine-1-carboxylic acid tert-butyl ester], the activation at 10 µM came out at 24%. The result for `CC(C)(C)OC(=O)N1CCC(c2nc(COc3c(F)cc(S(C)(=O)=O)cc3F)cs2)CC1` [Example 132, 4-[4-(2,6-Difluoro-4-methanesulfonyl-phenoxymethyl)-thiazol-2-yl]-piperidine-1-carboxylic acid tert-butyl ester] reads 70%; that for `CC(C)(C)OC(=O)N1CCC(c2nc(COc3ccc(N4CCOCC4)cc3)cs2)CC1` [Example 133, 4-[4-(4-Morpholin-4-yl-phenoxymethyl)-thiazol-2-yl]-piperidine-1-carboxylic acid tert-butyl ester], 61%; that for `CC(C)(C)OC(=O)N1CCC(c2nc(COc3ccc(SC(F)(F)F)cc3)cs2)CC1` [Example 134, 4-[4-(4-Trifluoromethylsulfanyl-phenoxymethyl)-thiazol-2-yl]-piperidine-1-carboxylic acid tert-butyl ester], 68%. Regarding `CC(C)(C)OC(=O)N1CCC(c2nc(COc3ccc(OCc4ccccc4)cc3)cs2)CC1` [Example 135, 4-[4-(4-Benzyloxy-phenoxymethyl)-thiazol-2-yl]-piperidine-1-carboxylic acid tert-butyl ester], the activation at 10 µM came out at 66%. Turning to `CC(C)(C)OC(=O)N1CCC(c2nc(COc3ccccc3)cs2)CC1` [Example 137, 4-(4-Phenoxymethyl-thiazol-2-yl)-piperidine-1-carboxylic acid tert-butyl ester], the activation at 10 µM came out at 35%.

In the case of `CC(C)(C)OC(=O)N1CCC(c2nc(CNc3ccc(S(C)(=O)=O)cc3)cs2)CC1` [Example 138, 4-{4-[(4-Methanesulfonyl-phenylamino)-methyl]-thiazol-2-yl}-piperidine-1-carboxylic acid tert-butyl ester], the activation at 10 µM turned out to be 64%. Next, `CC(C)(C)OC(=O)N1CCC(c2nc(COc3ccc(Br)cc3)cs2)CC1` [Example 140, 4-[4-(4-Bromo-phenoxymethyl)-thiazol-2-yl]-piperidine-1-carboxylic acid tert-butyl ester]: 62%; `CCc1cnc(N2CCC(c3nc(CNc4ccc(S(C)(=O)=O)cc4F)cs3)CC2)nc1` [Example 141, {2-[1-(5-Ethyl-pyrimidin-2-yl)-piperidin-4-yl]-thiazol-4-ylmethyl}-(2-fluoro-4-methanesulfonyl-phenyl)-amine]: 64%. The result for `CC(C)(C)OC(=O)N1CCC(c2nc(CNCc3ccc(S(C)(=O)=O)cc3)cs2)CC1` [Example 142, 4-{4-[(4-Methanesulfonyl-benzylamino)-methyl]-thiazol-2-yl}-piperidine-1-carboxylic acid tert-butyl ester] reads 78%; that for `C[C@H](NCc1csc(C2CCN(C(=O)OC(C)(C)C)CC2)n1)c1ccc(S(C)(=O)=O)cc1` [Example 143, 4-(4-{[1-(4-Methanesulfonyl-phenyl)-ethylamino]-methyl}-thiazol-2-yl)-piperidine-1-carboxylic acid tert-butyl ester], 63%.

As for `O=C(OC1CCCCC1)N1CCC(c2nc(COc3ccc(-n4cnnn4)cc3)cs2)CC1` [Example 147, 4-[4-(4-Tetrazol-1-yl-phenoxymethyl)-thiazol-2-yl]-piperidine-1-carboxylic acid cyclohexyl ester], the activation at 10 µM came to 56%. As to `CC(C)OC(=O)N1CCC(c2nc(COc3ccc(S(C)(=O)=O)cc3F)cs2)CC1` [Example 148, 4-[4-(2-Fluoro-4-methanesulfonyl-phenoxymethyl)-thiazol-2-yl]-piperidine-1-carboxylic acid isopropyl ester], the activation at 10 µM stood at 74%. The result for `CCCN1CCC(c2nc(COc3ccc(-n4cnnn4)cc3)cs2)CC1` [Example 150, 1-Propyl-4-[4-(4-tetrazol-1-yl-phenoxymethyl)-thiazol-2-yl]-piperidine] reads 32%; that for `CC(C)(C)C(=O)CN1CCC(c2nc(COc3ccc(-n4cnnn4)cc3)cs2)CC1` [Example 151, 3,3-Dimethyl-1-{4-[4-(4-tetrazol-1-yl-phenoxymethyl)-thiazol-2-yl]-piperidin-1-yl}-butan-2-one], 54%. For `CCCCN1CCC(c2nc(COc3ccc(-n4cnnn4)cc3)cs2)CC1` [Example 152, 1-Butyl-4-[4-(4-tetrazol-1-yl-phenoxymethyl)-thiazol-2-yl]-piperidine], the activation at 10 µM was 68%.

For `O=C(CN1CCC(c2nc(COc3ccc(-n4cnnn4)cc3)cs2)CC1)c1ccc(OC(F)(F)F)cc1` [Example 153, 2-{4-[4-(4-Tetrazol-1-yl-phenoxymethyl)-thiazol-2-yl]-piperidin-1-yl}-1-(4-trifluoromethoxy-phenyl)-ethanone], the activation at 10 µM turned out to be 44%. `CS(=O)(=O)N1CCC(c2nc(COc3ccc(-n4cnnn4)cc3)cs2)CC1` [Example 154, 1-Methanesulfonyl-4-[4-(4-tetrazol-1-yl-phenoxymethyl)-thiazol-2-yl]-piperidine]: the activation at 10 µM was determined as 66%. Turning to `CCCCCCCOC(=O)N1CCC(c2nc(COc3ccc(-n4cnnn4)cc3)cs2)CC1` [Example 155, 4-[4-(4-Tetrazol-1-yl-phenoxymethyl)-thiazol-2-yl]-piperidine-1-carboxylic acid heptyl ester], the activation at 10 µM came out at 73%. Take `Cc1ccc(S(=O)(=O)N2CCC(c3nc(COc4ccc(-n5cnnn5)cc4)cs3)CC2)cc1` [Example 156, 4-[4-(4-Tetrazol-1-yl-phenoxymethyl)-thiazol-2-yl]-1-(toluene-4-sulfonyl)-piperidine]: the activation at 10 µM came to 6%. Next, `CC(C)(C)OCC(=O)N1CCC(c2nc(COc3ccc(-n4cnnn4)cc3)cs2)CC1` [Example 157, 2-tert-Butoxy-1-{4-[4-(4-tetrazol-1-yl-phenoxymethyl)-thiazol-2-yl]-piperidin-1-yl}-ethanone]: 57%; `CCc1cnc(N2CCC(c3nc(COc4c(F)cc(-n5cnnn5)cc4F)cs3)CC2)nc1` [Example 159, 2-{4-[4-(2,6-Difluoro-4-tetrazol-1-yl-phenoxymethyl)-thiazol-2-yl]-piperidin-1-yl}-5-ethyl-pyrimidine]: 78%; `CCc1cnc(N2CCC(c3nc(COc4ccc(-n5cccc5)cc4)cs3)CC2)nc1` [Example 160, 5-Ethyl-2-{4-[4-(4-pyrrol-1-yl-phenoxymethyl)-thiazol-2-yl]-piperidin-1-yl}-pyrimidine]: 77%.

As for `CCc1cnc(N2CCC(c3nc(CNc4ccc(-n5cnnn5)cc4)cs3)CC2)nc1` [Example 161, {2-[1-(5-Ethyl-pyrimidin-2-yl)-piperidin-4-yl]-thiazol-4-ylmethyl}-(4-tetrazol-1-yl-phenyl)-amine], the activation at 10 µM amounted to 79%. Next, `CC(C)c1cnc(N2CCC(c3nc(COc4ccc(-n5cnnn5)cc4F)cs3)CC2)nc1` [Example 162, 2-{4-[4-(2-Fluoro-4-tetrazol-1-yl-phenoxymethyl)-thiazol-2-yl]-piperidin-1-yl}-5-isopropyl-pyrimidine]: 79%.
